# Activity calls are given as the source filed them.
# What was measured:
# [1] = biological target: T1, Oxysterols receptor LXR-beta (Homo sapiens, UniProt P55055); experiment: LXR agonists, Gal4 luciferase reporter, dose response, counter-screen for ssDAF-12 agonist project, cell-based, luminescence, HEK293, S. stercoralis campaign (AID 720737); type: functional; settings: read-out: IC50 (the source's name)
# T1 sequence (P55055 whole entry): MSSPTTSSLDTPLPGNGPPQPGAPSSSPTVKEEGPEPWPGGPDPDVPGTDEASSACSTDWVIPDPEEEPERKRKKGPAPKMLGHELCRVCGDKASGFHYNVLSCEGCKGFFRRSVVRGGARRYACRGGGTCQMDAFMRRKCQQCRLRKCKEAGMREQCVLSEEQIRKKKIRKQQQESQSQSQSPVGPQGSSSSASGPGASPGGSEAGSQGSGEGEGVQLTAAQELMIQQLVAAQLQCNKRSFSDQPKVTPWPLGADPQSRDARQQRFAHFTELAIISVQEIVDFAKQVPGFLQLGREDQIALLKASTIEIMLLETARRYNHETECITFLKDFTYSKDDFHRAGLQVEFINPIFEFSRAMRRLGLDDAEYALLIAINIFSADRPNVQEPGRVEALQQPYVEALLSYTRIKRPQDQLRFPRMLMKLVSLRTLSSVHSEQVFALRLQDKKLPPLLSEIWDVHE
# [2] = Luminescence-based cell-based high throughput dose response assay to identify activators of the DAF-12 from the parasite S. stercoralis (ssDAF-12).; type: functional
# [3] = biological target: 1-phosphatidylinositol 4,5-bisphosphate phosphodiesterase gamma-1 (Homo sapiens, UniProt P19174); experiment: Counterscreen for inhibitors of phospholipase C isozymes (PLC-B3): Fluorescence-based biochemical high throughput dose response assay to identify inhibitors of phospholipase C isozymes (PLC-gamma1).
# [4] = biological target: 1-phosphatidylinositol 4,5-bisphosphate phosphodiesterase beta-3 (Homo sapiens, UniProt Q01970); experiment: Fluorescence-based biochemical high throughput dose response assay to identify inhibitors of phospholipase C isozymes (PLC-B3).
# [5] = HEK293T cytotoxicity, dose response, cytotoxicity control for miR-122 modulator project, cell-based, inhibitor set, cherry-pick, set 2 (AID 720697); type: functional
# [6] = P. falciparum Dd2 growth inhibitors, dose response, SYBR Green, dry powder samples, set 9 (AID 1159568); type: functional, cell-based
# [7] = HEK293T cytotoxicity, dose response, cytotoxicity control for miR-122 modulator project, cell-based, activator set, cherry-pick (AID 720690); type: functional;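 note: HEK293T human cells scored for general mammalian cytotoxicity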
# [8] = miR-122 activators in hepatoma reporter cells, dose response, cell-based, Huh7 psiCHECK-miR122, Renilla luciferase, cherry-picked (AID 651956); type: functional;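 note: huh7 hepatoma cells stably carrying a psiCHECK-2 miR-122 sensor plasmid; renilla luciferase signal reporting endogenous miR-122 activity after 48 h compound exposure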
# Genome polyprotein = Genome polyprotein (dengue virus type 2, UniProt P29990); experiment: Dengue-2 NS5 methyltransferase inhibitors, primary screen, biochemical, confirmation dose response (AID 588689); type: functional
# [9] = HEK293 cell cytotoxicity, dose response, cytotoxicity control, plate reader, cherry-picked samples (AID 743446); type: functional, cell-based
# [10] = MC4R antagonists, dose response, counter-screen for LGR2 antagonist project, cell-based, plate reader, cherry pick (AID 743444); type: functional;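 note: transfected HEK 293 cells stimulated with alpha-MSH peptide; potency of inhibitors of the alpha-MSH evoked signal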
# [11] = A549 cell cytotoxicity, dose response, cytotoxicity control, plate reader, cherry-pick, antagonist series (AID 743412); type: functional, cell-based
# [12] = control 3'UTR Renilla luciferase suppression, dose response, counter-screen for Shn3 inhibitor project, cell-based, Clone20-Shn3RL, cherry-picked (AID 624133); type: functional
# [13] = Shn3 3'UTR reporter inhibitors, dose response, cell-based, Clone20 osteoblasts, firefly luciferase, cherry-picked (AID 624132); type: functional;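 note: firefly luciferase luminescence from reporter carrying the Shn3 3'UTR in osteoblasts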
# [14] = HepG2 cell cytotoxicity, dose response, cytotoxicity control, plate reader, cherry-pick, antagonist series (AID 743416); type: functional, cell-based
# [15] = biological target: COUP transcription factor 2 (Homo sapiens, UniProt P24468); experiment: Luminescence-based cell-based high throughput dose response assay to identify inhibitors of COUP-TFII (NR2F2).; type: functional;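 note: HEK293 cells transiently cotransfected with COUP-TFII expression vector and reporter; luciferase reporter luminescence driven by COUP-TFII from the pX2-168 reporter plasmid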
# [16] = LGR2 antagonists, dose response, cell-based, HEK293, CRE-luciferase reporter, cherry pick, set 2 (AID 743343); type: functional;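 note: transfected cells were stimulated with diluted bursicon conditioned medium after compound addition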
# [17] = P. falciparum Dd2 growth inhibitors, dose response, SYBR Green, dry powder samples (AID 1159566); type: functional, cell-based;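 note: potency for growth inhibition with lower SYBR green DNA signal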
# [18] = P. falciparum Dd2 growth inhibitors, dose response, SYBR Green, cherry-picked samples (AID 1159567); type: functional, cell-based
# [19] = P. falciparum 3D7-ScDHODH growth inhibitors, dose response, SYBR Green, dry powder samples (AID 1159570); type: functional, cell-based;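 note: parasite growth measured after 72 hours of compound exposure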
# [20] = P. falciparum ATP4 D1247Y mutant growth inhibitors, dose response, NITD609-resistant line, SYBR Green, dry powder (AID 1159571); type: functional, cell-based;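 note: parasites synchronized at ring stage by sorbitol before testing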
# [21] = HepG2 cell cytotoxicity, dose response, cytotoxicity control, cherry-picked samples (AID 1159577); type: functional, cell-based
# [22] = Concentration-dependent survival of SW480 colon cancer line, luminescence detection with CellTiter-Glo, half-maximal inhibitory concentration (AID 1117338); type: functional
# [23] = SNU-C1 cell viability reduction, dose response, CellTiter-Glo luminescence (AID 1117323); type: functional, cell-based
# [24] = cytotoxicity toward Colo320 cells – cell-based, CellTiter-Glo luminescence, IC50, dose response (AID 1117334); type: functional; settings: COLO 320
# [25] = RKO cell viability reduction, dose response, CellTiter-Glo luminescence (AID 1117322); type: functional
# [26] = CellTiter-Glo luminescent dose response of DLD-1 viability loss (AID 1117352); type: functional
# [27] = cytotoxicity toward HCT116 cells – cell-based, CellTiter-Glo luminescence, IC50, dose response (AID 1117332); type: functional; settings: HCT-116
# [28] = cytotoxicity toward HT-29 cells – cell-based, CellTiter-Glo luminescence, IC50, dose response (AID 1117330); type: functional
# Paired box protein Pax-8 = Paired box protein Pax-8 (Homo sapiens, UniProt Q06710); experiment: inhibitors of PAX8-driven TPO luciferase reporter, dose response, RMG-I cells, cherry-pick (AID 687027); type: functional, cell-based;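 note: luciferase reporter driven by Pax8 target thyroperoxidase promoter measured by SteadyGlo luminescence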
# [29] = cytotoxicity in OVCAR8 ovarian cancer cells, dose response, PAX8 project, cell-based, plate reader, dry powder samples (AID 743197); type: functional; settings: OVCAR-8
# [30] = IOSE-T80 ovarian epithelial cell cytotoxicity, dose response, cytotoxicity control for PAX8 inhibitor project, plate reader, dry powder samples (AID 743045); type: functional, cell-based
# [31] = IGROV1 ovarian cancer cell cytotoxicity, dose response, PAX8 inhibitor project, plate reader, dry powder samples (AID 743043); type: functional, cell-based; settings: IGROV-1
# [32] = NIH:OVCAR-3 ovarian cancer cell cytotoxicity, dose response, PAX8 inhibitor project, plate reader, dry powder samples (AID 743044); type: functional, cell-based
# [33] = A2780 ovarian cancer cell cytotoxicity, dose response, cytotoxicity control, plate reader, dry powder samples (AID 743046); type: functional, cell-based
# Paired box protein Pax-8, sequence (Q06710 whole entry): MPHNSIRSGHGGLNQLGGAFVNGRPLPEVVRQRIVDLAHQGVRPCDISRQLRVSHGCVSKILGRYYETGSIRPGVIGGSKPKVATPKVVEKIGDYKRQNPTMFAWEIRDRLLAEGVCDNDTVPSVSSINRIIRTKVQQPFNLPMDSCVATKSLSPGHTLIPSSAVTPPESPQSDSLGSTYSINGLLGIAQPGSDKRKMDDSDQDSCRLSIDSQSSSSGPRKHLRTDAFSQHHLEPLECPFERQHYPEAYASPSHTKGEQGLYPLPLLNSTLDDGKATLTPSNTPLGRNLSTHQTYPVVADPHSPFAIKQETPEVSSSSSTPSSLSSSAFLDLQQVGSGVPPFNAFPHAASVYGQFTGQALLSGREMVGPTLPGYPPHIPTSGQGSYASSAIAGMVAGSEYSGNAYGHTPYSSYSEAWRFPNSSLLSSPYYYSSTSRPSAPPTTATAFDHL
# 1-phosphatidylinositol 4,5-bisphosphate phosphodiesterase gamma-1, sequence (P19174 whole entry): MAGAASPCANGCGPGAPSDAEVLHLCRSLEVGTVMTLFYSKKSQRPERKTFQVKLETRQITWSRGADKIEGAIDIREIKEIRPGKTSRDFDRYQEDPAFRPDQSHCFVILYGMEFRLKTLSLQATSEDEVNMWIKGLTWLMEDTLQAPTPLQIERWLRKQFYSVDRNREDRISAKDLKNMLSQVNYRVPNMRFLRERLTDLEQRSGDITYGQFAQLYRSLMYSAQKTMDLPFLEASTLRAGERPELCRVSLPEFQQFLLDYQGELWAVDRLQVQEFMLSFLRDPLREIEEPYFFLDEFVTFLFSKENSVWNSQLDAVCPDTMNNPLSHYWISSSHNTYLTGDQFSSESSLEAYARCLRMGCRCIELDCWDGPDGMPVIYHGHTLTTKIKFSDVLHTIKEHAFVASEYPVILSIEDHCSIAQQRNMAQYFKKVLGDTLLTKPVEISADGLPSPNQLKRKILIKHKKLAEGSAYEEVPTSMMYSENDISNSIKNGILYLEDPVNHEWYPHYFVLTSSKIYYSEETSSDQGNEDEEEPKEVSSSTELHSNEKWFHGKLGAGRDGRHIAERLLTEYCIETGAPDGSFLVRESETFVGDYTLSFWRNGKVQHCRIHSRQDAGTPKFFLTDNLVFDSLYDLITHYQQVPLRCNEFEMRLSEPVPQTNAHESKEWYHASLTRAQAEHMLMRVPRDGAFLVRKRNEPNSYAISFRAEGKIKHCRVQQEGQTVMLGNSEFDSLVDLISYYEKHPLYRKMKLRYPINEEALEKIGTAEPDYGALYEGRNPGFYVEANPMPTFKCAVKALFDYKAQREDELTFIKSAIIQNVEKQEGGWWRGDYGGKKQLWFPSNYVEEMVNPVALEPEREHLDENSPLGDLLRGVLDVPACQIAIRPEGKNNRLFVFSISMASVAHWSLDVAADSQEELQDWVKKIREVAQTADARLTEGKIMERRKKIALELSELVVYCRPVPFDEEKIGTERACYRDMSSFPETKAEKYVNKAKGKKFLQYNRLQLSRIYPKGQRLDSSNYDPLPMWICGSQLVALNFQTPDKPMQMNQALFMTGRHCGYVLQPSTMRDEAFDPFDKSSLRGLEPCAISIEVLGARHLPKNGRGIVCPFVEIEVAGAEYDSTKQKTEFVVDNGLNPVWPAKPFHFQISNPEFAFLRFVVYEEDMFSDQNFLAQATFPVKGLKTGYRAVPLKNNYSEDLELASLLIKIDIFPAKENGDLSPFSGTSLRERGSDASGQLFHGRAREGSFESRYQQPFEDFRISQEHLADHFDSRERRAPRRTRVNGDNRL
# Genome polyprotein, sequence (P29990 2492-3391 limits assumed): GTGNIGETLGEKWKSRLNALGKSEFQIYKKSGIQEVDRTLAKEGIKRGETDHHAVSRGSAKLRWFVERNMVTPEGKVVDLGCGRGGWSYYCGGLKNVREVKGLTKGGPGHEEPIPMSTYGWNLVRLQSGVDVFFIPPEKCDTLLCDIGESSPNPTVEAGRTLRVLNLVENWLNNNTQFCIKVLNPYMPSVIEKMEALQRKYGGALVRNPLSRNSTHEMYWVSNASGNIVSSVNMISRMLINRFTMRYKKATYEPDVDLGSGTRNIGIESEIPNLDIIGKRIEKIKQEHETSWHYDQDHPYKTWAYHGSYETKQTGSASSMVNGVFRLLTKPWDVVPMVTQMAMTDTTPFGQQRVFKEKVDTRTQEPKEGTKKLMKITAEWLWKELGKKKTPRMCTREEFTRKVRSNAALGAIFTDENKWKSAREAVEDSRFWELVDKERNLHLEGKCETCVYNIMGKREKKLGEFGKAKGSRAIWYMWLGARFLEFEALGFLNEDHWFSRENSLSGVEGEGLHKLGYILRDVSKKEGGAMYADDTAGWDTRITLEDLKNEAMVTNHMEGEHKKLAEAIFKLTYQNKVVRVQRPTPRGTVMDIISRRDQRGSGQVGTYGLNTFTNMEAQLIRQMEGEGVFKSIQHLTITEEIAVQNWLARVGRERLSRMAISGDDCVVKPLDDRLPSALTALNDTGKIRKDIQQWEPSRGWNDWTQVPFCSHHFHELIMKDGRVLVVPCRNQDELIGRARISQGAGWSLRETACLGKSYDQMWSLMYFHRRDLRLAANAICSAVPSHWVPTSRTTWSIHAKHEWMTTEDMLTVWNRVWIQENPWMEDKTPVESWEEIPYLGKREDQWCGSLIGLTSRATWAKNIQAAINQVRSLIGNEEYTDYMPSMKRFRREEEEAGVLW
# COUP transcription factor 2, sequence (P24468 whole entry): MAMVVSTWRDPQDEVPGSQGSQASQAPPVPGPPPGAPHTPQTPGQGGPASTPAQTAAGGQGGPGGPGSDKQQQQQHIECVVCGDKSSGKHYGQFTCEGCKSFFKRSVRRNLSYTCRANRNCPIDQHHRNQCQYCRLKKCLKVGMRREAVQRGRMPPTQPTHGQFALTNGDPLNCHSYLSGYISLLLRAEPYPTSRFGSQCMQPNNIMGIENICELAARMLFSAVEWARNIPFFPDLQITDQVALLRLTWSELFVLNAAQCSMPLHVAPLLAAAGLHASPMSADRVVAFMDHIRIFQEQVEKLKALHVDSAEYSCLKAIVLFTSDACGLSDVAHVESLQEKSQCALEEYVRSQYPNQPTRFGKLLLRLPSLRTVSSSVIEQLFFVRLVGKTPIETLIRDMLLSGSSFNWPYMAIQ
# 1-phosphatidylinositol 4,5-bisphosphate phosphodiesterase beta-3, sequence (Q01970 whole entry): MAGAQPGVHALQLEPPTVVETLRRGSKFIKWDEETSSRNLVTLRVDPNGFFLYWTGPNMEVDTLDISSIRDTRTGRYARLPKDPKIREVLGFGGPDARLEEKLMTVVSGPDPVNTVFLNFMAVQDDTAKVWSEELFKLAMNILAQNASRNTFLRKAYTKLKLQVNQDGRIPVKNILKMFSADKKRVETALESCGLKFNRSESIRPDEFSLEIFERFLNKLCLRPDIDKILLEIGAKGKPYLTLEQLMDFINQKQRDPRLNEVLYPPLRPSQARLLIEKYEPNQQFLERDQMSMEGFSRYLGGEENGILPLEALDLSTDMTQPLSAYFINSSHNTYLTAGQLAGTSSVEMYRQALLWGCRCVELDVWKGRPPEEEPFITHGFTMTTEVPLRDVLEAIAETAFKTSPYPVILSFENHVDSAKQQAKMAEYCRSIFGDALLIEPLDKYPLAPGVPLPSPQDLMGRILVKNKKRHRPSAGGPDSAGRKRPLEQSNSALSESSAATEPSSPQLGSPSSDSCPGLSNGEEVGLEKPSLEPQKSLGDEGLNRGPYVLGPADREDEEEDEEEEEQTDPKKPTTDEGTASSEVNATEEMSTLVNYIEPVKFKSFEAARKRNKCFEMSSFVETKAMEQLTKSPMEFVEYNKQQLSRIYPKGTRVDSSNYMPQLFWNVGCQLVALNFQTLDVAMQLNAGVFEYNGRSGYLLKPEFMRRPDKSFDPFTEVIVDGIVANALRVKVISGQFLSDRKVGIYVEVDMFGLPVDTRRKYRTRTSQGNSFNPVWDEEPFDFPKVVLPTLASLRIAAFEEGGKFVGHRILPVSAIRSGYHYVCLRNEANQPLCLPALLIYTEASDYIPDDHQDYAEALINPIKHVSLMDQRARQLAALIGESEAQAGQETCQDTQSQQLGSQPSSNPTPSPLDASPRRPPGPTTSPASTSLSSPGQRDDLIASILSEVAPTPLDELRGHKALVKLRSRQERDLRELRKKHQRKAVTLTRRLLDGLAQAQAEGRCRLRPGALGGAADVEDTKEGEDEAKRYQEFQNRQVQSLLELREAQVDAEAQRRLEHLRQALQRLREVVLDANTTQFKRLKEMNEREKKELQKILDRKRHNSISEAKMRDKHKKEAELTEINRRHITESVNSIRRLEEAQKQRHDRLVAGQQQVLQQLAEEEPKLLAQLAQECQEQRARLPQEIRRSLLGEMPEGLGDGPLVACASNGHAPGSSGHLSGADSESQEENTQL
smiles,measurement,setting,value
COc1ccc(C(=O)Nc2ccc3ccccc3c2)c(OC)c1,EC50,[1],> 67.5 µM (inactive)
same,IC50,[2],> 67.5 µM (inactive)
Fc1ccc(-c2cc(-c3cccs3)cc(-c3ccccc3)n2)cc1,IC50,[3],> 123 µM (inactive)
same,IC50,[4],> 123 µM (inactive)
CN1C(=O)c2cc(NC(=O)c3ccc(C(F)(F)F)cc3)ccc2OC[C@H]2O[C@@H](CC(=O)NCc3ccc4c(c3)OCO4)CC[C@H]21,AC50,[5],7.69 µM (active)
same,AC50,[6],17.8 µM (active)
same,AC50,[7],16.2 µM (active)
same,AC50,[8],10.9 µM (active)
CC1(C)NC(=S)C(C)(C)N1N=O,EC50,[1],> 67.5 µM (inactive)
same,IC50,[2],> 67.5 µM (inactive)
O=C(O)c1[nH]c2ccccc2c1C(c1cc(Br)ccc1O)c1c(C(=O)O)[nH]c2ccccc12,IC50,Genome polyprotein,16 µM (active)
same,AC50,cells,9.21 µM (active)
CC[C@H]1CN2CCc3cc(OC)c(OC)cc3C2C[C@@H]1C[C@H]1NCCc2cc(OC)c(OC)cc21 (stereo not given in full),AC50,[9],0.0731 µM (active)
same,AC50,[10],0.25 µM (active)
same,AC50,[11],0.0576 µM (active)
same,AC50,[12],< 0.26 µM (active)
same,AC50,[13],< 0.26 µM (active)
same,AC50,[14],0.0959 µM (active)
same,IC50,[15],0.209 µM (active)
same,AC50,[16],0.257 µM (active)
COc1ccc(NC(=O)N2CC(=O)N3[C@@H](CO)[C@H](c4ccc(C#CCC5CCCC5)cc4)[C@@H]3C2)cc1,AC50,[17],2.17 µM (active)
same,AC50,[18],3.79 µM (active)
same,AC50,[19],2.19 µM (active)
same,AC50,[20],2.84 µM (active)
same,AC50,[21],> 42 µM (inactive)
Cc1c(NC(=O)c2cccnc2)c(=O)n(-c2ccccc2)n1C [NIFENAZONE],IC50,[22],> 20 µM (inactive)
same,IC50,[23],> 20 µM (inactive)
same,IC50,[24],> 20 µM (inactive)
same,IC50,[25],> 20 µM (inactive)
same,IC50,[26],> 20 µM (inactive)
same,IC50,[27],> 20 µM (inactive)
same,IC50,[28],> 20 µM (inactive)
CCCNC(=O)N1[C@H](C#N)[C@H](c2ccccc2-c2cccc(C)c2)[C@@H]1CO,AC50,[6],7.01 µM (active)
COc1ccccc1NC(=O)N1CCCCN2[C@@H](CO)[C@@H](c3ccc(-c4cccc(C)c4)cc3)[C@@H]2C1,AC50,Paired box protein Pax-8,13.2 µM (active)
same,AC50,[29],68.6 µM (active)
same,AC50,[18],1.43 µM (active)
same,AC50,[21],11.2 µM (active)
same,AC50,[30],67.5 µM (active)
same,AC50,[31],28.4 µM (active)
same,AC50,[32],31.6 µM (active)
CCOC(=O)Oc1ccc(CCNC(=O)[C@H](CCSC)NC(C)=O)cc1OC(=O)OCC [DOCARPAMINE],IC50,[22],> 20 µM (inactive)
same,IC50,[23],> 20 µM (inactive)
same,IC50,[24],> 20 µM (inactive)
same,IC50,[25],> 20 µM (inactive)
same,IC50,[26],> 20 µM (inactive)
same,IC50,[27],> 20 µM (inactive)
same,IC50,[28],> 20 µM (inactive)
C[C@H]1CN([C@@H](C)CO)S(=O)(=O)c2ccc(C#Cc3ccncc3)cc2O[C@@H]1CN(C)C(=O)Nc1ccc2c(c1)OCO2,AC50,Paired box protein Pax-8,0.264 µM (active)
same,AC50,[29],1.89 µM (active)
same,AC50,[30],3.88 µM (active)
same,AC50,[31],1.23 µM (active)
same,AC50,[32],1.48 µM (active)
same,AC50,[33],1.49 µM (active)
COc1ccc(C#Cc2ccc([C@@H]3[C@H](CO)N4CCCCN(C(=O)Nc5ccc(F)cc5)C[C@@H]34)cc2)cc1,AC50,Paired box protein Pax-8,15.5 µM (active)
same,AC50,[29],41.2 µM (active)
same,AC50,[33],13.9 µM (active)
OC[C@H]1[C@@H](c2ccc(-c3cccnc3)cc2)[C@@H]2CN(CC3CC3)CCCCN12,AC50,[17],1.8 µM (active)
same,AC50,[18],2.12 µM (active)
same,AC50,[19],1.9 µM (active)
same,AC50,[20],2.65 µM (active)

# Source: ChEMBL document CHEMBL1201862, “PubChem BioAssay data set” (2004)
